Reference: ChEMBL document CHEMBL1133267, “The total synthesis of piclavines A1-4 and their biological evaluation” (Bioorg Med Chem Lett, 2000)
Converted amounts (≈) assume the structure as drawn. The source made the active and inactive calls. No cut-off for these calls is given here.

Columns and labels:
Human alphaherpesvirus 1 = assay: Compound was evaluated for antiviral activity against Herpes simplex virus type 1; ND means Not detected owing to toxicity; assay type: functional, organism-based
Influenza A virus = assay: Compound was evaluated for antiviral activity against Influenza virus A/PR/8; assay type: functional, organism-based
MDCK = assay: Compound was evaluated for inhibition of MDCK cell growth; assay type: functional; settings: Canis lupus familiaris
Streptococcus pneumoniae [1] = assay: Compound was evaluated for antibacterial activity against Streptococcus pneumoniae; IA means Inactive; assay type: functional, organism-based
Vero = assay: Compound was evaluated for inhibition of cell growth of Vero cells; assay type: functional; settings: Chlorocebus sabaeus
Streptococcus pneumoniae [2] = assay: Compound was evaluated for antibacterial activity against Streptococcus pneumoniae; weak activity; assay type: functional, organism-based
Candida albicans = assay: Compound was evaluated for inhibitory activity on Candida albicans; active; assay type: functional, organism-based

| SMILES | IC50 (Human alphaherpesvirus 1) | IC50 (Influenza A virus) [µg/mL] | CC50 (MDCK) [µg/mL] | Activity (Streptococcus pneumoniae [1]) | CC50 (Vero) [µg/mL] | Activity (Streptococcus pneumoniae [2]) | Activity (Candida albicans) |
| --- | --- | --- | --- | --- | --- | --- | --- |
| CCCCCCC/C=C\C[C@@H]1CCC[C@@H]2CCCN21 | Not detected | 4.2 (≈ 15.9 µM) | 17.1 (≈ 64.9 µM) | inactive | 40.9 (≈ 155 µM) | – | – |
| CCCCCCC/C=C\C[C@H]1CCC[C@@H]2CCCN21 | Not detected | 3.72 (≈ 14.1 µM) | 9.28 (≈ 35.2 µM) | – | 7.67 (≈ 29.1 µM) | weak activity | Active |
| CCCCCCC/C=C/C[C@H]1CCC[C@@H]2CCCN21 | Not detected | 4.84 (≈ 18.4 µM) | 8.92 (≈ 33.9 µM) | – | 9.18 (≈ 34.8 µM) | weak activity | – |
| CCCCCCC/C=C/C[C@@H]1CCC[C@@H]2CCCN21 | Not detected | 1.45 (≈ 5.5 µM) | 20.1 (≈ 76.3 µM) | inactive | 42.3 (≈ 161 µM) | – | – |
